Measured values as given in ChEMBL document CHEMBL1201862, “PubChem BioAssay data set” (2004).
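Cells were grown in 96-well plates and exposed to each compound for 48 hours at five concentrations; endpoints were interpolated linearly between bracketing concentrations, or set to the highest concentration if not reached. GI50 = concentration required for 50% inhibition of growth.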 Calls of active or inactive are those of the source. No stated cut-off is given here; in the data, active = GI50 up to about 1.1 µM and inactive = higher.

Assays:
Experiment in all cases: inhibition of tumour cell growth, NCI panel, 48 h
786-0 = test system: 786-0
A498 = test system: A498
A549 = test system: A549
ACHN = test system: ACHN
BT-549 = test system: BT-549
CAKI-1 = test system: CAKI-1
COLO 205 = test system: COLO 205
DU-145 = test system: DU-145
EKVX = test system: EKVX
HCT-116 = test system: HCT-116
HCT-15 = test system: HCT-15
HL-60 = test system: HL-60
HOP-62 = test system: HOP-62
HOP-92 = test system: HOP-92
HT-29 = test system: HT-29
Hs-578T = test system: Hs-578T
IGROV-1 = test system: IGROV-1
K562 = test system: K562
KM12 = test system: KM12
LOX IMVI = test system: LOX IMVI
M14 = test system: M14
MCF7 = test system: MCF7
MDA-MB-231 = test system: MDA-MB-231
MDA-MB-435 = test system: MDA-MB-435
MDA-N = test system: MDA-N
MOLT-4 = test system: MOLT-4
Malme-3M = test system: Malme-3M
NCI-H226 = test system: NCI-H226
NCI-H460 = test system: NCI-H460
NCI-H522 = test system: NCI-H522
NCI/ADR-RES = test system: NCI/ADR-RES
OVCAR-3 = test system: OVCAR-3
OVCAR-4 = test system: OVCAR-4
OVCAR-5 = test system: OVCAR-5
OVCAR-8 = test system: OVCAR-8
PC-3 = test system: PC-3
RPMI-8226 = test system: RPMI-8226
RXF 393 = test system: RXF 393
SF-268 = test system: SF-268
SF-295 = test system: SF-295
SF-539 = test system: SF-539
SK-MEL-28 = test system: SK-MEL-28
SK-MEL-2 = test system: SK-MEL-2
SK-MEL-5 = test system: SK-MEL-5
SK-OV-3 = test system: SK-OV-3
SN12C = test system: SN12C
SNB-19 = test system: SNB-19
SNB-75 = test system: SNB-75
SR = test system: SR
SW-620 = test system: SW-620
T47D = test system: T47D
TK-10 = test system: TK-10
U-251 = test system: U-251
UACC-257 = test system: UACC-257
UACC-62 = test system: UACC-62
UO-31 = test system: UO-31
CCRF-CEM = test system: CCRF-CEM
NCI-H23 = test system: NCI-H23

Nc1nc(-c2ccccc2)c(CC(=O)O)s1
GI50 (786-0): > 100 µM (inactive)
GI50 (A498): > 100 µM (inactive)
GI50 (A549): > 100 µM (inactive)
GI50 (ACHN): > 100 µM (inactive)
GI50 (BT-549): > 100 µM (inactive)
GI50 (CAKI-1): > 100 µM (inactive)
GI50 (COLO 205): > 100 µM (inactive)
GI50 (DU-145): > 100 µM (inactive)
GI50 (EKVX): > 100 µM (inactive)
GI50 (HCT-116): > 100 µM (inactive)
GI50 (HCT-15): > 100 µM
GI50 (HL-60): 20 µM (inactive)
GI50 (HOP-62): > 100 µM (inactive)
GI50 (HOP-92): > 100 µM (inactive)
GI50 (HT-29): > 100 µM (inactive)
GI50 (Hs-578T): > 100 µM (inactive)
GI50 (IGROV-1): > 100 µM (inactive)
GI50 (K562): > 100 µM (inactive)
GI50 (KM12): > 100 µM (inactive)
GI50 (LOX IMVI): > 100 µM (inactive)
GI50 (M14): > 100 µM (inactive)
GI50 (MCF7): > 100 µM (inactive)
GI50 (MDA-MB-231): > 100 µM (inactive)
GI50 (MDA-MB-435): > 100 µM (inactive)
GI50 (MDA-N): > 100 µM (inactive)
GI50 (MOLT-4): > 100 µM (inactive)
GI50 (Malme-3M): > 100 µM (inactive)
GI50 (NCI-H226): > 100 µM (inactive)
GI50 (NCI-H460): > 100 µM (inactive)
GI50 (NCI-H522): > 100 µM (inactive)
GI50 (NCI/ADR-RES): > 100 µM (inactive)
GI50 (OVCAR-3): > 100 µM (inactive)
GI50 (OVCAR-4): > 100 µM (inactive)
GI50 (OVCAR-5): > 100 µM (inactive)
GI50 (OVCAR-8): > 100 µM (inactive)
GI50 (PC-3): > 100 µM (inactive)
GI50 (RPMI-8226): > 100 µM (inactive)
GI50 (RXF 393): > 100 µM (inactive)
GI50 (SF-268): > 100 µM (inactive)
GI50 (SF-295): > 100 µM (inactive)
GI50 (SF-539): > 100 µM (inactive)
GI50 (SK-MEL-28): > 100 µM (inactive)
GI50 (SK-MEL-2): > 100 µM (inactive)
GI50 (SK-MEL-5): > 100 µM (inactive)
GI50 (SK-OV-3): > 100 µM (inactive)
GI50 (SN12C): > 100 µM (inactive)
GI50 (SNB-19): > 100 µM (inactive)
GI50 (SNB-75): > 100 µM (inactive)
GI50 (SR): > 100 µM (inactive)
GI50 (SW-620): > 100 µM (inactive)
GI50 (T47D): > 100 µM (inactive)
GI50 (TK-10): > 100 µM (inactive)
GI50 (U-251): > 100 µM (inactive)
GI50 (UACC-257): > 100 µM (inactive)
GI50 (UACC-62): > 100 µM (inactive)
GI50 (UO-31): > 100 µM (inactive)

COc1nc(C#CC2CCCCC2)nc(OC)n1
GI50 (786-0): 1.69 µM (inactive)
GI50 (A498): 21.4 µM (inactive)
GI50 (A549): 3.95 µM (inactive)
GI50 (ACHN): 4.26 µM (inactive)
GI50 (BT-549): 3.37 µM (inactive)
GI50 (CAKI-1): 3.39 µM (inactive)
GI50 (CCRF-CEM): 1.12 µM (inactive)
GI50 (COLO 205): 6.1 µM (inactive)
GI50 (DU-145): 3.92 µM (inactive)
GI50 (EKVX): 16 µM (inactive)
GI50 (HCT-116): 0.401 µM (active)
GI50 (HCT-15): 1.38 µM
GI50 (HL-60): 1.12 µM (inactive)
GI50 (HOP-62): 3.72 µM (inactive)
GI50 (HT-29): 4.81 µM (inactive)
GI50 (Hs-578T): 3.58 µM (inactive)
GI50 (IGROV-1): 3.79 µM (inactive)
GI50 (K562): 3.92 µM (inactive)
GI50 (KM12): 4.76 µM (inactive)
GI50 (LOX IMVI): 1.51 µM (inactive)
GI50 (M14): 2.38 µM (inactive)
GI50 (MCF7): 2.14 µM (inactive)
GI50 (MDA-MB-231): 2.3 µM (inactive)
GI50 (MDA-MB-435): 2.08 µM (inactive)
GI50 (MDA-N): 3.28 µM (inactive)
GI50 (MOLT-4): 2.98 µM (inactive)
GI50 (Malme-3M): 1.95 µM (inactive)
GI50 (NCI-H23): 1.45 µM (inactive)
GI50 (NCI-H460): 5.6 µM (inactive)
GI50 (NCI-H522): 1.59 µM (inactive)
GI50 (NCI/ADR-RES): 1.64 µM (inactive)
GI50 (OVCAR-3): 3.22 µM (inactive)
GI50 (OVCAR-4): 5.42 µM (inactive)
GI50 (OVCAR-5): 2.51 µM (inactive)
GI50 (OVCAR-8): 1.61 µM (inactive)
GI50 (PC-3): 4.21 µM (inactive)
GI50 (RPMI-8226): 1.51 µM (inactive)
GI50 (RXF 393): 4.91 µM (inactive)
GI50 (SF-268): 4.07 µM (inactive)
GI50 (SF-295): 5.24 µM (inactive)
GI50 (SF-539): 2.45 µM (inactive)
GI50 (SK-MEL-28): 8.18 µM (inactive)
GI50 (SK-MEL-2): 3.81 µM (inactive)
GI50 (SK-MEL-5): 3.06 µM (inactive)
GI50 (SK-OV-3): 13.1 µM (inactive)
GI50 (SN12C): 2.2 µM (inactive)
GI50 (SNB-19): 16.6 µM (inactive)
GI50 (SNB-75): 9.71 µM (inactive)
GI50 (SR): 2.3 µM (inactive)
GI50 (SW-620): 3.3 µM (inactive)
GI50 (T47D): 31.7 µM (inactive)
GI50 (U-251): 3.39 µM (inactive)
GI50 (UACC-257): 11 µM (inactive)
GI50 (UACC-62): 1.28 µM (inactive)
GI50 (UO-31): 2.54 µM (inactive)

O=C1C2SC34c5c2c2ccccc2n5CCC3CCCN14 (stereo unspecified)
GI50 (786-0): 27.5 µM (inactive)
GI50 (A498): > 100 µM (inactive)
GI50 (A549): > 100 µM (inactive)
GI50 (ACHN): > 100 µM (inactive)
GI50 (BT-549): > 100 µM (inactive)
GI50 (CAKI-1): 48.4 µM (inactive)
GI50 (COLO 205): > 100 µM (inactive)
GI50 (DU-145): > 100 µM (inactive)
GI50 (EKVX): > 100 µM (inactive)
GI50 (HCT-116): > 100 µM (inactive)
GI50 (HCT-15): > 100 µM
GI50 (HL-60): > 100 µM (inactive)
GI50 (HOP-62): 31.8 µM (inactive)
GI50 (HOP-92): 34.9 µM (inactive)
GI50 (HT-29): > 100 µM (inactive)
GI50 (Hs-578T): 38.1 µM (inactive)
GI50 (IGROV-1): 80.7 µM (inactive)
GI50 (K562): > 100 µM (inactive)
GI50 (KM12): > 100 µM (inactive)
GI50 (LOX IMVI): > 100 µM (inactive)
GI50 (M14): > 100 µM (inactive)
GI50 (MCF7): > 100 µM (inactive)
GI50 (MDA-MB-231): 39.6 µM (inactive)
GI50 (MDA-MB-435): 89.1 µM (inactive)
GI50 (MDA-N): > 100 µM (inactive)
GI50 (MOLT-4): > 100 µM (inactive)
GI50 (Malme-3M): > 100 µM (inactive)
GI50 (NCI-H226): > 100 µM (inactive)
GI50 (NCI-H23): > 100 µM (inactive)
GI50 (NCI-H522): 56.8 µM (inactive)
GI50 (NCI/ADR-RES): > 100 µM (inactive)
GI50 (OVCAR-3): 65 µM (inactive)
GI50 (OVCAR-4): 37.5 µM (inactive)
GI50 (OVCAR-5): > 100 µM (inactive)
GI50 (OVCAR-8): 83.8 µM (inactive)
GI50 (PC-3): 54.8 µM (inactive)
GI50 (RPMI-8226): > 100 µM (inactive)
GI50 (RXF 393): 98.4 µM (inactive)
GI50 (SF-268): 39.4 µM (inactive)
GI50 (SF-295): 55.2 µM (inactive)
GI50 (SF-539): > 100 µM (inactive)
GI50 (SK-MEL-28): > 100 µM (inactive)
GI50 (SK-MEL-2): 74.6 µM (inactive)
GI50 (SK-MEL-5): > 100 µM (inactive)
GI50 (SK-OV-3): > 100 µM (inactive)
GI50 (SN12C): > 100 µM (inactive)
GI50 (SNB-19): 62.4 µM (inactive)
GI50 (SR): > 100 µM (inactive)
GI50 (SW-620): > 100 µM (inactive)
GI50 (T47D): 91.2 µM (inactive)
GI50 (TK-10): 25.9 µM (inactive)
GI50 (U-251): 33.9 µM (inactive)
GI50 (UACC-257): 15 µM (inactive)
GI50 (UACC-62): > 100 µM (inactive)
GI50 (UO-31): > 100 µM (inactive)
